Data from patent US20240384268A1, “Oligonucleotides” (Hudson Institute of Medical Research, priority 2021, published 2024).
In the oligonucleotide strings, read from the 5' end, every base follows the letter of its sugar. An asterisk marks phosphorothioate; unmarked linkages are phosphodiester. Other units and linkages are bracketed, terminal groups are in braces. A string of capitals states the bases alone. d = 2'-deoxy (DNA); m = 2'-O-methyl

molecular target: T1, human TLR7 (Homo sapiens, UniProt Q9NYK1); assay: HEK-TLR7 NF-κB-luciferase reporter, R848 stimulation; format: cell-based; settings: HEK-TLR7; 100 nM ASO; percentage of R848 without ASO (Alharbi et al., 2020)
T1 construct: HA; host or cells: 293XL-hTLR7-HA (HEK293)
T1 sequence (Q9NYK1 27-1049): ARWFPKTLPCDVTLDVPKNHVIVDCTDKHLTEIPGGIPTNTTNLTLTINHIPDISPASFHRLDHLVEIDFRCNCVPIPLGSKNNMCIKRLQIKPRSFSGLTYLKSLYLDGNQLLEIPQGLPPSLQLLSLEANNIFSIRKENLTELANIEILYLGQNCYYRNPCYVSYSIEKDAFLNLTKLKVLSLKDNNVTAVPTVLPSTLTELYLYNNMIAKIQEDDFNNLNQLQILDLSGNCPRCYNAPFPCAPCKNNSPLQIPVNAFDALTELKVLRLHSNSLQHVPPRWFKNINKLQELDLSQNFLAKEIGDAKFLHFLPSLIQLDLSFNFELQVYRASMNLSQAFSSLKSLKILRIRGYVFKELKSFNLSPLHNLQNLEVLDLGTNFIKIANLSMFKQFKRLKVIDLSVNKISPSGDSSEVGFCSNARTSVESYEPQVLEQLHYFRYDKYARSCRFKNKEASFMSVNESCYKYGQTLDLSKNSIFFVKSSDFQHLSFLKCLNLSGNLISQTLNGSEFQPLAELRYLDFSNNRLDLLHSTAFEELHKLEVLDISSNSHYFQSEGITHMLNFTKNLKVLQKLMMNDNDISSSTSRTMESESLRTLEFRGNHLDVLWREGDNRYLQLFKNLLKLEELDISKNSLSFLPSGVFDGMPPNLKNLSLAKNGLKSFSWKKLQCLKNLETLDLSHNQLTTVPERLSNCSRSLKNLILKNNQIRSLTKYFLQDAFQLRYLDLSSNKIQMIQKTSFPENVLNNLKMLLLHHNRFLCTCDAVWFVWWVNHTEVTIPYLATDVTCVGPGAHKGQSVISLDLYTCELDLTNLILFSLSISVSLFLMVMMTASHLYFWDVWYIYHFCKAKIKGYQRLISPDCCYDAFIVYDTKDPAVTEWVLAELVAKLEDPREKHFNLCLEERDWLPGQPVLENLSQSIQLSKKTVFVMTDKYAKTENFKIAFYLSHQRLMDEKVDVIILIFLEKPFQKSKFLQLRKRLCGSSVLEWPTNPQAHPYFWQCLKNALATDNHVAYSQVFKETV

Substance	TLR7-100 nM: averaged NF-κB-Luciferase relative to R848
mA*mA*mG*mG*mU*G*G*C*C*A*C*A*G*G*C*mA*mA*mC*mG*mU (mA*mA*mG*mG*mU*dG*dG*dC*dC*dA*dC*dA*dG*dG*dC*mA*mA*mC*mG*mU; antisense) [[CDKN2B-AS1]2198]	57.85%
mA*mA*mU*mA*mU*C*T*G*C*T*G*C*C*C*A*mC*mC*mU*mU*mC (mA*mA*mU*mA*mU*dC*dT*dG*dC*dT*dG*dC*dC*dC*dA*mC*mC*mU*mU*mC; antisense) [[CDKN2B-AS1]832]	43.66%
mA*mA*mU*mU*mU*A*A*A*G*C*A*T*G*A*A*mU*mA*mU*mU*mA (mA*mA*mU*mU*mU*dA*dA*dA*dG*dC*dA*dT*dG*dA*dA*mU*mA*mU*mU*mA) [[CDKN2B-AS1]645]	46.75%
mA*mC*mC*mC*mU*T*C*T*C*T*C*T*G*G*T*mC*mC*mC*mA*mU (mA*mC*mC*mC*mU*dT*dC*dT*dC*dT*dC*dT*dG*dG*dT*mC*mC*mC*mA*mU; antisense) [[LINC-PINT]115]	43.37%
mA*mG*mA*mA*mA*G*A*A*G*C*A*A*A*G*A*mU*mU*mC*mA*mA (AGAAAGAAGCAAAGAUUCAA; sugars from the 5' end m5 d10 m5, all phosphorothioate, methylation of C not given here) [[CDKN2B-AS1]1519]	42.99%
mA*mG*mA*mU*mU*A*T*C*T*T*C*T*T*T*T*mA*mA*mU*mU*mU (AGAUUATCTTCTTTTAAUUU; sugars from the 5' end m5 d10 m5, all phosphorothioate, methylation of C not given here) [[CDKN2B-AS1]2130]	37.10%
mA*mG*mC*mC*mG*A*A*C*A*G*A*A*G*G*A*mG*mC*mG*mU*mC (AGCCGAACAGAAGGAGCGUC; sugars from the 5' end m5 d10 m5, all phosphorothioate, methylation of C not given here) [[LINC-PINT]587 KL]	27.70%
mA*mG*mG*mA*mU*T*A*A*A*A*C*A*G*A*T*mU*mA*mA*mU*mA (mA*mG*mG*mA*mU*dT*dA*dA*dA*dA*dC*dA*dG*dA*dT*mU*mA*mA*mU*mA) [[CDKN2B-AS1] 1775]	36.28%
mA*mG*mG*mC*mC*T*C*C*A*G*T*G*T*C*T*mU*mC*mU*mC*mC (mA*mG*mG*mC*mC*dT*dC*dC*dA*dG*dT*dG*dT*dC*dT*mU*mC*mU*mC*mC; antisense) [[CDKN2B-AS1]2218]	44.73%
mA*mU*mA*mU*mC*T*G*C*T*G*C*C*C*A*C*mC*mU*mU*mC*mU (AUAUCTGCTGCCCACCUUCU; antisense; sugars from the 5' end m5 d10 m5, all phosphorothioate, methylation of C not given here) [[CDKN2B-AS1]831]	47.52%
mA*mU*mG*mA*mC*A*T*T*T*C*G*T*G*G*C*mU*mC*mC*mU*mA (mA*mU*mG*mA*mC*dA*dT*dT*dT*dC*dG*dT*dG*dG*dC*mU*mC*mC*mU*mA) [[LINC-PINT]524.1]	32.53%
mC*mA*mA*mG*mC*C*C*C*A*G*C*G*T*T*C*mC*mU*mC*mC*mG (mC*mA*mA*mG*mC*dC*dC*dC*dA*dG*dC*dG*dT*dT*dC*mC*mU*mC*mC*mG; antisense) [[LINC-PINT]83.1]	45.20%
mC*mA*mC*mC*mC*T*T*C*T*C*T*C*T*G*G*mU*mC*mC*mC*mA (CACCCTTCTCTCTGGUCCCA; antisense; sugars from the 5' end m5 d10 m5, all phosphorothioate, methylation of C not given here) [[LINC-PINT]116]	73.30%
mC*mA*mC*mU*mG*T*A*T*T*T*T*A*T*T*A*mC*mA*mG*mA*mA (mC*mA*mC*mU*mG*dT*dA*dT*dT*dT*dT*dA*dT*dT*dA*mC*mA*mG*mA*mA; antisense) [[LINC-PINT]2990]	58.13%
mC*mA*mG*mG*mC*C*T*C*C*A*G*T*G*T*C*mU*mU*mC*mU*mC (mC*mA*mG*mG*mC*dC*dT*dC*dC*dA*dG*dT*dG*dT*dC*mU*mU*mC*mU*mC; antisense) [[CDKN2B-AS1]2219]	54.11%
mC*mA*mU*mC*mC*C*T*T*C*T*G*C*T*G*C*mC*mA*mA*mG*mC (mC*mA*mU*mC*mC*dC*dT*dT*dC*dT*dG*dC*dT*dG*dC*mC*mA*mA*mG*mC; antisense) [[LINC-PINT]98]	54.34%

Substance	TLR7-100 nM: averaged NF-κB-Luciferase relative to R848
mC*mC*mA*mU*mC*C*C*T*T*C*T*G*C*T*G*mC*mC*mA*mA*mG (mC*mC*mA*mU*mC*dC*dC*dT*dT*dC*dT*dG*dC*dT*dG*mC*mC*mA*mA*mG; antisense) [ILING-PINT199]	52.57%
mC*mC*mA*mU*mG*T*C*C*C*A*G*G*C*C*T*mC*mC*mA*mG*mU (CCAUGTCCCAGGCCTCCAGU; sugars from the 5' end m5 d10 m5, all phosphorothioate, methylation of C not given here) [[CDKN2B-AS1]2227]	41.39%
mC*mC*mC*mU*mA*A*T*G*C*T*T*T*C*C*T*mC*mU*mC*mC*mA (mC*mC*mC*mU*mA*dA*dT*dG*dC*dT*dT*dT*dC*dC*dT*mC*mU*mC*mC*mA; antisense) [[LINC-PINT1877 KL]	58.39%
mC*mC*mC*mU*mU*C*T*C*T*C*T*G*G*T*C*mC*mC*mA*mU*mC (mC*mC*mC*mU*mU*dC*dT*dC*dT*dC*dT*dG*dG*dT*dC*mC*mC*mA*mU*mC; antisense) [[LINC-PINT]114]	49.59%
mC*mC*mU*mA*mG*A*A*A*G*A*A*G*C*A*A*mA*mG*mA*mU*mU (mC*mC*mU*mA*mG*dA*dA*dA*dG*dA*dA*dG*dC*dA*dA*mA*mG*mA*mU*mU) [[CDKN2B-AS1]1522]	57.20%
mC*mC*mU*mU*mC*T*C*T*C*T*G*GT*C*C*mC*mA*mU*mC*mC (CCUUCTCTCTGGTCCCAUCC; antisense; chemistry not fully specified) [[LINC-PINT]113]	60.90%
mC*mC*mU*mU*mC*T*G*C*T*G*C*C*A*A*G*mC*mC*mC*mC*mA (mC*mC*mU*mU*mC*dT*dG*dC*dT*dG*dC*dC*dA*dA*dG*mC*mC*mC*mC*mA; antisense) [[LINC-PINT]94]	85.57%
mC*mU*mC*mU*mC*T*G*G*T*C*C*C*A*T*C*mC*mC*mU*mU*mC (mC*mU*mC*mU*mC*dT*dG*dG*dT*dC*dC*dC*dA*dT*dC*mC*mC*mU*mU*mC; antisense) [[LINC-PINT]109]	84.97%
mC*mU*mU*mC*mU*C*T*C*T*G*G*T*C*C*C*mA*mU*mC*mC*mC (mC*mU*mU*mC*mU*dC*dT*dC*dT*dG*dG*dT*dC*dC*dC*mA*mU*mC*mC*mC) [[LINC-PINT]112]	56.20%
mC*mU*mU*mU*mA*T*A*T*T*A*C*A*A*A*G*mC*mU*mA*mC*mU (mC*mU*mU*mU*mA*dT*dA*dT*dT*dA*dC*dA*dA*dA*dG*mC*mU*mA*mC*mU; antisense) [[LINC-PINT]2755]	54.83%
mG*mA*mA*mA*mA*G*A*T*T*A*T*C*T*T*C*mU*mU*mU*mU*mA (GAAAAGATTATCTTCUUUUA; sugars from the 5' end m5 d10 m5, all phosphorothioate, methylation of C not given here) [[CDKN2B-AS1]2134]	34.44%
mG*mA*mU*mG*mG*T*T*C*C*A*G*T*C*C*C*mU*mC*mU*mU*mC (GAUGGTTCCAGTCCCUCUUC; antisense; sugars from the 5' end m5 d10 m5, all phosphorothioate, methylation of C not given here) [[LINC-PINT]1497.1]	22.32%
mG*mA*mU*mU*mA*A*A*A*C*A*G*A*T*T*A*mA*mU*mA*mC*mA (mG*mA*mU*mU*mA*dA*dA*dA*dC*dA*dG*dA*dT*dT*dA*mA*mU*mA*mC*mA) [[CDKN2B-AS1]1773]	21.92%
mG*mC*mA*mA*mG*G*C*A*G*A*G*A*A*A*C*mU*mC*mC*mA*mG (GCAAGGCAGAGAAACUCCAG; sugars from the 5' end m5 d10 m5, all phosphorothioate, methylation of C not given here) [[LINC-PINT]1315 KL]	19,99%
mG*mC*mG*mU*mA*G*T*T*T*C*T*C*T*T*C*mC*mU*mC*mC*mC (GCGUAGTTTCTCTTCCUCCC; sugars from the 5' end m5 d10 m5, all phosphorothioate, methylation of C not given here) [[LINC-PINT]935 KL]	27.23%
